Experimental data as given in patent US8481528B2 (Hoffmann-La Roche Inc., priority 2010, dated 2013).
Where two headings read alike, the source gives them in different places.

Biological target: T1, human V1a receptor (Homo sapiens, UniProt P37288)
T1 construct: expressed in transfected cells; host or cells: HEK293 cells, transiently transfected; cell membranes
Test: human V1a receptor binding (3H-Vasopressin SPA, HEK293 membranes)
Method: The human V1a receptor was cloned by RT-PCR from total human liver RNA. The coding sequence was subcloned in an expression vector after sequencing to confirm the identity of the amplified sequence. […] Cell membranes were prepared from HEK293 cells transiently transfected with the expression vector and grown in 20 liter fermenters with the following protocol.
50 g of cells are resuspended in 30 ml freshly prepared ice cold Lysis buffer (50 mM HEPES, 1 mM EDTA, 10 mM magnesium dichloride adjusted to pH=7.4+complete cocktail of protease inhibitor (Roche Diagnostics)). Homogenized with Polytron for 1 min and sonicated on ice for 2×2 minutes at 80% intensity (Vibracell sonicator). The preparation is centrifuged 20 min at 500 g at 4° C., the pellet is discarded and the supernatant centrifuged 1 hour at 43′000 g at 4° C. (19'000 rpm). The pellet is resuspended in 12.5 ml Lysis buffer+12.5 ml sucrose 20% and homogenized using a Polytron for 1-2 min. The protein concentration is determined by the Bradford method and aliquots are stored at −80° C. until use. For binding studies 60 mg Yttrium silicate SPA beads (Amersham®) are mixed with an aliquot of membrane in binding buffer (50 mM Tris, 120 mM sodium chloride, 5 mM potassium chloride, 2 mM calcium dichloride, 10 mM magnesium dichloride) for 15 minutes with mixing. 50 μl of bead/membrane mixture is then added to each well of a 96 well plate, followed by 50 μl of 4 nM 3H-Vasopressin (American Radiolabeled Chemicals). For total binding measurement 100 μl of binding buffer are added to the respective wells, for non-specific binding 100 μl of 8.4 mM cold vasopressin and for compound testing 100 μl of a serial dilution of each compound in 2% dimethyl sulfoxide. The plate is incubated 1 h at room temperature, centrifuged 1 min at 1000 g and counted on a Packard Top-Count. Non-specific binding counts are subtracted from each well and data is normalized to the maximum specific binding set at 100%. To calculate an IC50 the curve is fitted using a non-linear regression model (XLfit) and the Ki is calculated using the Cheng-Prussoff equation.

[1] = 3H-Vasopressin displacement, membranes of HEK293 cells transiently transfected with human V1a receptor, Ki by Cheng-Prusoff, read-out: pKi (hV1a) (converted)

T1 sequence (P37288 whole entry): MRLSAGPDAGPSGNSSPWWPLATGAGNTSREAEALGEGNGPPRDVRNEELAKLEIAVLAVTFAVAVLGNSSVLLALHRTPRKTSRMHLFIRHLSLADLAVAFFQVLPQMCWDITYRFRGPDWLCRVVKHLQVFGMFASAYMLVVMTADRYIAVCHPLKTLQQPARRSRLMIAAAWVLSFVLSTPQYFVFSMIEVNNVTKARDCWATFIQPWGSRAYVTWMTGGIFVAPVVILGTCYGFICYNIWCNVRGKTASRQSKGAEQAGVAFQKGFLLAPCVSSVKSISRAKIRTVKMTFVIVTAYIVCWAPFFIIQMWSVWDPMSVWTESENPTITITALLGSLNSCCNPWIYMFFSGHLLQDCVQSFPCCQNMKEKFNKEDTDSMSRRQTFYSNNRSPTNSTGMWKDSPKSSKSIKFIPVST

Row | Structure (SMILES) | Ki [1] | Ki
1 | CC(C)(C)OC(=O)N1Cc2cc(Cl)ccc2-n2c(nnc2[C@H]2CC[C@H](c3nsc4cccnc43)CC2)C1 [Example 27, trans-8-Chloro-1-(4-isothiazolo[4,5-b]pyridin-3-yl-cyclohexyl)-4H,6H-2,3,5,10b-tetraaza-benzo[e]azulene-5-carboxylic acid tert-butyl ester] | 4.27 nM | –
2 | Clc1ccc2c(c1)CNCc1nnc([C@H]3CC[C@H](c4nsc5cccnc54)CC3)n1-2 [Example 28, trans-8-Chloro-1-(4-isothiazolo[4,5-b]pyridin-3-yl-cyclohexyl)-5,6-dihydro-4H-2,3,5,10b-tetraaza-benzo[e]azulene] | 1.1 nM | –
3 | CN1Cc2cc(Cl)ccc2-n2c(nnc2[C@H]2CC[C@H](c3nsc4cccnc43)CC2)C1 [Example 29, trans-8-Chloro-1-(4-isothiazolo[4,5-b]pyridin-3-yl-cyclohexyl)-5-methyl-5,6-dihydro-4H-2,3,5,10b-tetraaza-benzo[e]azulene] | 0.794 nM | –
4 | CC(C)(C)OC(=O)N1Cc2cc(Cl)ccc2-n2c(nnc2[C@H]2CC[C@H](c3nsc4cnccc43)CC2)C1 [Example 30] | 5.5 nM | –
5 | Clc1ccc2c(c1)CNCc1nnc([C@H]3CC[C@H](c4nsc5cnccc54)CC3)n1-2 [Example 31, trans-8-Chloro-1-(4-isothiazolo[5,4-c]pyridin-3-yl-cyclohexyl)-5,6-dihydro-4H-2,3,5,10b-tetraaza-benzo[e]azulene] | 2.57 nM | –
6 | CN1Cc2cc(Cl)ccc2-n2c(nnc2[C@H]2CC[C@H](c3nsc4cnccc43)CC2)C1 [Example 32] | 0.891 nM | –
7 | CC(C)(C)OC(=O)N1Cc2cc(Cl)ccc2-n2c(nnc2[C@H]2CC[C@@H](c3nsc4ccccc43)CC2)C1 [Example 33, cis-1-(4-Benzo[d]isothiazol-3-yl-cyclohexyl)-8-chloro-4H,6H-2,3,5,10b-tetraaza-benzo[e]azulene-5-carboxylic acid tert-butyl ester] | 1.1 nM | –
8 | Clc1ccc2c(c1)CNCc1nnc([C@H]3CC[C@@H](c4nsc5ccccc54)CC3)n1-2 [Example 34, cis-1-(4-Benzo[d]isothiazol-3-yl-cyclohexyl)-8-chloro-5,6-dihydro-4H-2,3,5,10b-tetraaza-benzo[e]azulene] | – | 25.7 nM
9 | CN1Cc2cc(Cl)ccc2-n2c(nnc2[C@H]2CC[C@@H](c3nsc4ccccc43)CC2)C1 [Example 35, cis-1-(4-Benzo[d]isothiazol-3-yl-cyclohexyl)-8-chloro-5-methyl-5,6-dihydro-4H-2,3,5,10b-tetraaza-benzo[e]azulene] | 4.27 nM | –
